Reference: US20250042884A1, “3-ARYLOXYL-3-FIVE-MEMBERED HETEROARYL PROPYLAMINE COMPOUND AND USE THEREOF” (Shanghai Leado Pharmatech Co. Ltd., priority 2018, published 2025)

Each compound was assayed against TRPA1 (Mus musculus (Mouse), UniProt Q8BLA8) (assay: IonWorks Barracuda (IWB) automated patch clamp detection of TRPA1 inhibitory activity). Conditions: HEK293 cells stably expressing TRPA1; current induced by AITC; read-out: IC50 (μM), inhibitory activity on TRPA1 in the automated patch clamp detection test.
Type: cell-based
Experimental: The inhibitory activity of some compounds in the examples of the present invention (as shown in Table 1) on transient receptor potential channel protein TRPA1 was tested in this example. The compound of formula A (WO2010075353) was used as a positive control compound: […]
Ion Works Barracuda (IWB) automated patch clamp detection was used as test method: HEK293 cells stably expressing TRPA1 were placed in DMEM medium containing 15 μg/mL Blasticidin S HCl, 200 μg/mL Hygromycin B and 10% FBS in the T175 culture flask, and cultured in 37° C., 5% CO2 incubator. When the cell density reached about 80%, the culture medium was removed, rinsed with phosphate buffered saline (PBS) without calcium and magnesium. 3 mL of Trypsin was added to digest for 2 min, 7 mL of culture medium was added to terminate the digestion. The cells were collected to 15 mL centrifuge tube and centrifuged at 800 rpm for 3 min. After the supernatant was removed, the cells were added to appropriate volume of extracellular fluid for re-suspending, and the cell density was controlled at 2-3×10^6/mL for IWB experiment. Extracellular fluid formulation (in mM): 140 NaCl, 5 KCl, 1 MgCl2, 10 HEPES, 0.5 EGTA, 10 Glucose (pH 7.4); intracellular fluid formulation (in mM): 140 CsCl, 10 HEPES, 5 EGTA, 0.1 CaCl2, 1 MgCl2 (pH 7.2). 28 mg/mL of amphotericin B was freshly prepared with DMSO on the day of experiment, and then final concentration of 0.1 mg/mL was prepared with intracellular fluid.
Population patch clamp (PPC) plate was used in IWB experiment. The entire detection process was automatically carried out by the instrument. Extracellular fluid was added into 384 wells of PPC plate, and 6 µL of the intracellular fluid was added into plenum (under the PPC plate), 6 µL of cell fluid was added for sealing test, and finally the intracellular fluid in plenum was replaced with amphotericin B-containing intracellular fluid to establish a whole-cell recording mode after perforating sealed cells. The sampling frequency for recording TPRA1 current was 10 kHz, the cells were clamped at 0 mV, the voltage stimulation command (channel protocol) was a ramp voltage from −100 mV to +100 mV for 300 ms. This voltage stimulation was applied every 10 s, mTRPA1current was induced by 300 µM AITC.
Data recording and current amplitude measurement export were carried out by IWB software (version 2.5.3, Molecular Devices Corporation, Union City, CA). No statistics was recorded for holes with sealing impedance lower than 20 MQΩ. The original current data was corrected by software for leakage reduction. TRPA1 current amplitude was measured at +100 mV. […] If IC50 value of HC030031 exceeded 3 times the average IC50 value previously obtained on each plate, it would be re-tested. The dose-effect curve of compounds and IC50 were fitted and calculated by GraphPad Prism 5.02 (GraphPad Software, San Diego, CA).
Some compounds in the examples of the present invention were detected by lonWorks Barracuda (IWB) automated patch clamp detection method for IC50 inhibitory activity.

Sequence of TRPA1 (Q8BLA8 whole entry): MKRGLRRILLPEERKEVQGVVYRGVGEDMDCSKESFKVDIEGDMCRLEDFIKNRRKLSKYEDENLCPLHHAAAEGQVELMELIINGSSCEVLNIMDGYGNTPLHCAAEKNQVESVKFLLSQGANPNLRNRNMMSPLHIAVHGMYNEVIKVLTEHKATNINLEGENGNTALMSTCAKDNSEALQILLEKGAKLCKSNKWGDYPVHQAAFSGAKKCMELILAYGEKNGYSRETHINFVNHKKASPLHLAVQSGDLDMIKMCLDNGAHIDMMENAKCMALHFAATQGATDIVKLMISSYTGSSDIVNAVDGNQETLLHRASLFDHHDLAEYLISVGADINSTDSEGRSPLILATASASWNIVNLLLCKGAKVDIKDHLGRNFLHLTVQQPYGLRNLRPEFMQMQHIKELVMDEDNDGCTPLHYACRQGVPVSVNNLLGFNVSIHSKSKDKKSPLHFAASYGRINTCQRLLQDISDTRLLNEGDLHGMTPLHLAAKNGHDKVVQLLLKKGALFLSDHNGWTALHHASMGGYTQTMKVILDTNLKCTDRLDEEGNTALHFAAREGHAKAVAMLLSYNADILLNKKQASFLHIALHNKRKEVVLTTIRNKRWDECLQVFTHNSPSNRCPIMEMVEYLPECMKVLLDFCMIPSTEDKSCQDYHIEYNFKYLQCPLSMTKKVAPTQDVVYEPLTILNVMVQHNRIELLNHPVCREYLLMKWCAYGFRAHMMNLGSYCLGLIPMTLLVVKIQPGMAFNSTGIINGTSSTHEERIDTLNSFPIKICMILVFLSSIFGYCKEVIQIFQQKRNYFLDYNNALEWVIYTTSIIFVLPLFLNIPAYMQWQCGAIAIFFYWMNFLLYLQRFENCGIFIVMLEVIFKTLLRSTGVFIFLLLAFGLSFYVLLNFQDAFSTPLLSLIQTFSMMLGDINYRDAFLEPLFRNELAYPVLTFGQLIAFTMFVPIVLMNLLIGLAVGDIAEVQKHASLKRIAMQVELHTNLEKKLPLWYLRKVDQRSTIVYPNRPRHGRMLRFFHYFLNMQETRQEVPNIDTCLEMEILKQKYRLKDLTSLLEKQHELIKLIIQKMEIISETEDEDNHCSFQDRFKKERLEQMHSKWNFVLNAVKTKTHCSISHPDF

SMILES | IC50 [µM]
CNCC[C@@H](Oc1cccc2ccoc12)c1ccccc1 [Compound C2, (R)-3-(benzofuran-7-yloxy)-N-methyl-3-phenylpropyl-1-amine] | 11 to 20
NCC[C@@H](Oc1cccc2ccoc12)c1cccs1 [Compound I-2, (R)-3-(benzofuran-7-yloxy)-3-(thiophen-2-yl)propyl-1-amine] | 6 to 10
CN(C)CC[C@@H](Oc1cccc2ccoc12)c1cccs1 [Compound I-3, (R)-3-(benzofuran-7-yloxy)-N,N-dimethyl-3-(thiophen-2-yl)propyl-1-amine] | 1 to 5
CCNCC[C@@H](Oc1cccc2ccoc12)c1cccs1 [Compound I-4, (R)-3-(benzofuran-7-yloxy)-N-ethyl-3-(thiophen-2-yl)propyl-1-amine] | 1 to 5
CNCC[C@@H](Oc1cccc2ccoc12)c1ccsc1 [Compound I-5, (R)-3-(benzofuran-7-yloxy)-N-methyl-3-(thiophen-3-yl)propyl-1-amine] | 1 to 5
CNCC[C@@H](Oc1cccc2ccoc12)c1ccc(C)s1 [Compound I-6, (R)-3-(benzofuran-7-yloxy)-N-methyl-3-(5-methylthiophen-2-yl)propyl-1-amine] | 6 to 10
CNCC[C@@H](Oc1cccc2ccoc12)c1ccco1 [Compound I-8, (R)-3-(benzofuran-7-yloxy)-3-(furan-2-yl)-N-methylpropyl-1-amine] | 1 to 5
CNCC[C@@H](Oc1cccc2ccccc12)c1cccs1 [R-duloxetine] | 21 to 50

Results, then the compound that gave them:

IC50 [µM] | SMILES
6 to 10 | CNCC[C@@H](Oc1cccc2c1CCC2)c1cccs1 [Compound I-9, (R)-3-((2,3-dihydro-1H-inden-4-yl)oxy)-N-methyl-3-(thienyl-2yl)propyl-1-amine]
6 to 10 | CNCC[C@@H](Oc1cccc2occc12)c1cccs1 [Compound I-11, (R)-3-(benzofuran-4-yloxy)-N-methyl-3-(thiophen-2-yl)propyl-1-amine]
51 to 100 | C[C@H]1CCCN1c1ccc(-c2csc(NC(=O)Cn3cnc4c3c(=O)n(C)c(=O)n4C)n2)cc1F [Compound of formula A]
